Assay results taken from patent US7384920B2, “Use of stilbene compounds in the manufacture of medicament for the prevention and treatment of diabetes or retrovirus-associated diseases” (priority 2001, dated 2008).
Where “and” joins values, the source holds several entries; their conditions need not be identical. Equal entries are not always repeated.

How the values were obtained:
[1] = system: normal rats; assay: Effect on glucose tolerance curve of normal rats; assay type: in vivo; design: Auc (area under glucose tolerance curve): unit not given beside the values; details: for Glucose after medication 0′: 0 h after ip glucose 2 g/Kg; for Glucose after medication 30′: 30 min after ip glucose 2 g/Kg; for Glucose after medication 60′: 60 min after ip glucose 2 g/Kg; for Glucose after medication 120′: 120 min after ip glucose 2 g/Kg; for Auc (area under glucose tolerance curve): ip glucose 2 g/Kg, 0-2 hours; for Glucose (fasted): fasted 8 hours
Method: In these experiments, stilbene derivatives in examples 1-5 are administrated respectively to KM male mice or Wistar male rats pos for 12 days , then test animals were fasted for 8 hours, examined glucose values, and administrated the test compound. One hour later, administered ip of glucose 2 g/Kg (1.11 mol/L glucose solution). Determining the glucose values at 0, ½, 1, 2 hours after glucose injection and calculating the area under this glucose tolerance curve.

[2] = system: alloxan induced diabetic mice; assay: Hypoglycemic effect on glucose level of alloxan induced diabetic mice; assay type: in vivo; details: for Postdosing glucose level / Predosing glucose level: alloxan diabetic KM male mice; for Predosing glucose level: before dosing
Method: The metformin or miglucan were used as positive control drugs. And the hypoglycemic effects were evaluated. Hypoglycemic effect of stilbene derivatives on glucose level of alloxan induced diabetic mice.
KM strain male mice which have been fasted for 5-8 hours are used and be injected intravenously of alloxan 80mg/Kg, and 72 hours later, selected those with glucose level>11.0 mmol/L as the diabetic model mice for drug evaluation. Compounds were administered pos for 12 days.

[3] = system: HBeAg expression; assay: Inhibition of HBeAg expression in 2.2.15 cells (ELISA of supernatant); assay type: cell-based; details: 2.2.15 cells 10^5/ml
Method: Experimental method: use 10% DMEM(with G418 380 μg/ml)to cultivate 2.2.15 cells,
Add 1.5ml of 10^5 cell/ml to 24 well plate for cultivation, change the new cultivate fluid next day and add different amount of compound to it, cultivate each concentration of compound to 3 wells, then collect and freeze 200 μl of supernatant of 2.2.15 cell culture at day 2,4,6 cultivation. Measure HBeAg value of the supernatant by ELISA.
E3 are the same, OD optical density, IR inhibition rate, ctr control IR=[Ctr(P/N)−Agent(P/N)]/[Ctr(P/N)−2.1]

[4] = Solubility in organic solvents (identification); assay type: physicochemical; details: organic solvents as named in the value
[5] = system: mice; assay: in vivo; assay type: in vivo
[6] = in vivo; assay type: in vivo; details: mouse, in vivo, pos
[7] = normal rats N=6, 75 mg/Kg pos 12 days
[8] = normal rats N=6, 150 mg/Kg pos 12 days

## COc1ccc(Cl)cc1C(=O)NCCc1ccc(S(=O)(=O)NC(=O)NC2CCCCC2)cc1 [Miglucan, reference compound]
[1]; normal rats N=6, 100 mg/Kg
  Glucose after medication 0′: 2.7 ± 0.8 mmol/L and 3.4 ± 0.4 mmol/L
  Glucose after medication 30′: 11.5 ± 0.6 mmol/L and 8.7 ± 3.5 mmol/L
  Glucose after medication 60′: 7.8 ± 6.2 mmol/L and 5.3 ± 2.1 mmol/L
  Glucose after medication 120′: 4.1 ± 1.7 mmol/L and 3.8 ± 1.4 mmol/L
  Auc (area under glucose tolerance curve): 883.1 ± 43.5 and 663.8 ± 220.2

## CN(C)C(=N)N=C(N)N [Metformin, reference compound]
[2]; 500 mg/kg pos for 12 days, 500 mg/kg
  Postdosing glucose level: 17.49 ± 5.33 mmol/L and 17.64 ± 1.00 mmol/L and 15.16 ± 8.53 mmol/L
[2]; group 500 mg/kg
  Predosing glucose level: 22.81 ± 4.89 mmol/L and 21.15 ± 3.85 mmol/L and 17.10 ± 4.84 mmol/L
[2]; alloxan induced diabetic mice, summary of Table 1
  Hypoglycemic effect (in words): effective

## 3,3′,4′,5-quadrahydroxystilbene-4′-O-β-D-glucopyranoside [Compound E1]
[2]; 250 mg/kg pos for 12 days
  Postdosing glucose level: 21.10 ± 5.73 mmol/L
[2]; 500 mg/kg pos for 12 days
  Postdosing glucose level: 16.39 ± 5.32 mmol/L
[2]; 1000 mg/kg pos for 12 days
  Postdosing glucose level: 16.54 ± 5.48 mmol/L
[2]; group 250 mg/kg
  Predosing glucose level: 22.49 ± 4.63 mmol/L
[2]; group 500 mg/kg
  Predosing glucose level: 22.76 ± 3.17 mmol/L
[2]; group 1000 mg/kg
  Predosing glucose level: 22.65 ± 3.55 mmol/L
[3]; 10 μg/ml, Day 2
  IR (%) inhibition rate of HBeAg: 57.75%
  OD (HBeAg ELISA): 0.244
[3]; 10 μg/ml, Day 4
  IR (%) inhibition rate of HBeAg: 32.68%
  OD (HBeAg ELISA): 0.208
[3]; 10 μg/ml, Day 6
  IR (%) inhibition rate of HBeAg: 51.57%
  OD (HBeAg ELISA): 0.228
[3]; 20 μg/ml, Day 2
  IR (%) inhibition rate of HBeAg: 63.83%
  OD (HBeAg ELISA): 0.224
[3]; 20 μg/ml, Day 4
  IR (%) inhibition rate of HBeAg: −62.75%
  OD (HBeAg ELISA): 0.354
[3]; 20 μg/ml, Day 6
  IR (%) inhibition rate of HBeAg: 48.82%
  OD (HBeAg ELISA): 0.235

## Oc1ccc(/C=C/c2cc(O)cc(O)c2)cc1 [Compound E]
[2]; 75 mg/kg pos for 12 days
  Postdosing glucose level: 20.01 ± 7.1 mmol/L
[2]; 150 mg/kg pos for 12 days
  Postdosing glucose level: 18.36 ± 6.25 mmol/L
[2]; group 75 mg/kg
  Predosing glucose level: 17.27 ± 4.60 mmol/L
[2]; group 150 mg/kg
  Predosing glucose level: 17.87 ± 4.86 mmol/L
[4]
  Solubility (in words): easily soluble in methyl alcohol, ethyl alcohol and acetone
[5]; mouse, in vivo
  Toxicity (in words): very low
[6]; female, mice ♀
  MTD: > 6100 mg/kg
[6]; male, mice ♂
  MTD: > 6000 mg/kg
[1]; [7]
  Glucose (fasted): 5.3 ± 0.9 mmol/L
[1]; normal rats N=6, 75 mg/Kg
  Glucose after medication 0′: 4.9 ± 0.7 mmol/L
  Glucose after medication 30′: 12.1 ± 2.3 mmol/L
  Glucose after medication 60′: 7.5 ± 0.8 mmol/L
  Glucose after medication 120′: 6.2 ± 0.9 mmol/L
  Auc (area under glucose tolerance curve): 961.1 ± 115.9
[1]; [8]
  Glucose (fasted): 5.8 ± 0.6 mmol/L
[1]; normal rats N=6, 150 mg/Kg
  Glucose after medication 0′: 4.2 ± 0.4 mmol/L
  Glucose after medication 30′: 9.5 ± 2.1 mmol/L
  Glucose after medication 60′: 6.1 ± 1.2 mmol/L
  Glucose after medication 120′: 4.7 ± 0.7 mmol/L
  Auc (area under glucose tolerance curve): 760.2 ± 119.6

## COc1ccc(C=Cc2cc(O)cc(O[C@@H]3O[C@H](CO)[C@@H](O)[C@H](O)[C@H]3O)c2)cc1 [Compound E3, 3,5-dihydroxy-4′-methyloxy stilbene-3-O-β-O-D glucoside]
[3]; 10 μg/ml, Day 2
  IR (%) inhibition rate of HBeAg: 72.95%
  OD (HBeAg ELISA): 0.194
[3]; 10 μg/ml, Day 4
  IR (%) inhibition rate of HBeAg: 39.87%
  OD (HBeAg ELISA): 0.197
[3]; 10 μg/ml, Day 6
  IR (%) inhibition rate of HBeAg: 71.65%
  OD (HBeAg ELISA): 0.177
[3]; 20 μg/ml, Day 2
  IR (%) inhibition rate of HBeAg: 51.37%
  OD (HBeAg ELISA): 0.265
[3]; 20 μg/ml, Day 4
  IR (%) inhibition rate of HBeAg: 1.31%
  OD (HBeAg ELISA): 0.256
[3]; 20 μg/ml, Day 6
  IR (%) inhibition rate of HBeAg: 48.43%
  OD (HBeAg ELISA): 0.236
[5]; mice ♀, pos
  MTD: >11200 mg/kg
[5]; mice ♂, pos
  MTD: >11000 mg/kg
[5]; mice, pos, summary of Table 3
  Toxicity (in words): very low

## COc1cc(C=Cc2cc(O)cc(O[C@@H]3O[C@H](CO)[C@@H](O)[C@H](O)[C@H]3O)c2)ccc1O [Compound E2, 3,4′,5-trihydroxy-3′-methyloxy stilbene-3-O-β-D glucoside]
[2]; 250 mg/kg pos for 12 days
  Postdosing glucose level: 22.61 ± 6.07 mmol/L
[2]; 500 mg/kg pos for 12 days
  Postdosing glucose level: 28.96 ± 8.21 mmol/L
[2]; 1000 mg/kg pos for 12 days
  Postdosing glucose level: 24.64 ± 2.49 mmol/L
[2]; group 250 mg/kg
  Predosing glucose level: 21.43 ± 5.04 mmol/L
[2]; group 500 mg/kg
  Predosing glucose level: 22.98 ± 5.94 mmol/L
[2]; group 1000 mg/kg
  Predosing glucose level: 21.38 ± 5.75 mmol/L
[3]; 10 μg/ml, Day 2
  IR (%) inhibition rate of HBeAg: 71.43%
  OD (HBeAg ELISA): 0.199
[3]; 10 μg/ml, Day 4
  IR (%) inhibition rate of HBeAg: 45.75%
  OD (HBeAg ELISA): 0.188
[3]; 10 μg/ml, Day 6
  IR (%) inhibition rate of HBeAg: 56.69%
  OD (HBeAg ELISA): 0.251
[3]; 20 μg/ml, Day 2
  IR (%) inhibition rate of HBeAg: 40.43%
  OD (HBeAg ELISA): 0.301
[3]; 20 μg/ml, Day 4
  IR (%) inhibition rate of HBeAg: 9.15%
  OD (HBeAg ELISA): 0.244
[3]; 20 μg/ml, Day 6
  IR (%) inhibition rate of HBeAg: 4.72%
  OD (HBeAg ELISA): 0.347
[5]; mice ♀, pos
  MTD: >16872 mg/kg
[5]; mice ♂, pos
  MTD: >18301 mg/kg
[5]; mice, pos, summary of Table 3
  Toxicity (in words): very low

## OC[C@H]1OC(Oc2cc(O)cc(C=Cc3ccc(O)cc3)c2)[C@H](O)[C@@H](O)[C@@H]1O (some centres unmarked) [Compound E5]
[2]; 75 mg/kg pos for 12 days
  Postdosing glucose level: 21.79 ± 9.39 mmol/L
[2]; 150 mg/kg pos for 12 days
  Postdosing glucose level: 21.05 ± 4.63 mmol/L
[2]; group 75 mg/kg
  Predosing glucose level: 17.46 ± 5.86 mmol/L
[2]; group 150 mg/kg
  Predosing glucose level: 17.92 ± 5.35 mmol/L
[4]
  Solubility (in words): easily soluble in acetone
[5]; mouse, in vivo
  MTD: >10000 mg/kg
  Toxicity (in words): very low
[1]; [7]
  Glucose (fasted): 4.6 ± 0.5 mmol/L
[1]; normal rats N=6, 75 mg/Kg
  Glucose after medication 0′: 4.9 ± 0.7 mmol/L
  Glucose after medication 30′: 12.0 ± 1.5 mmol/L
  Glucose after medication 60′: 7.4 ± 0.8 mmol/L
  Glucose after medication 120′: 6.7 ± 0.7 mmol/L
  Auc (area under glucose tolerance curve): 966.8 ± 71.6
[1]; [8]
  Glucose (fasted): 4.7 ± 0.8 mmol/L
[1]; normal rats N=6, 150 mg/Kg
  Glucose after medication 0′: 4.3 ± 0.9 mmol/L
  Glucose after medication 30′: 10.2 ± 1.5 mmol/L
  Glucose after medication 60′: 6.3 ± 1.1 mmol/L
  Glucose after medication 120′: 5.7 ± 1.1 mmol/L
  Auc (area under glucose tolerance curve): 836.3 ± 112.1
